This is an account of results in paper PMC3344887 (PLoS ONE, 2012).

One data set in a line: clinical. On the procedure: Identical placebo (lactose) capsules were prepared. […] Drugs were administered without food.
Plasma concentrations of copeptin were also determined in this study as reported elsewhere. […] No hydrolysis was performed. Thus, the values for HMMA represent the drug concentrations of the non-conjugated metabolite. All blood samples were collected on ice and centrifuged within 10 min at 4°C. The plasma was then stored at –20°C until the analysis.
Cmax and tmax were obtained directly from the observed concentration-time curves. […] Terminal elimination half-life (t 1/2) was calculated using λz and the equation t1/2 = ln2/λz. The area under the plasma concentration-time curve up to 6 h (AUC0-6h) was calculated using the linear trapezoidal rule. The AUC0–∞ was determined by extrapolation of AUC0–6h using λz. The PK parameters were determined using the PK functions for Excel (Microsoft, Redmont, CA, USA). Plasma concentrations were only determined up to 6 h after MDMA administration because the aim of the study was to assess potential changes in MDMA plasma levels while relevant pharmacodynamic effects or MDMA were present.

In data set [1] the target is T1, DAT (Homo sapiens, UniProt Q01959). As to the kind of experiment: cell-based.
Data set [2] has as its target T2, NET (Homo sapiens, UniProt P23975). Briefly: Radioligand binding, [3H]-nisoxetine, HEK 293 membranes. Set-up: expressed in transfected cells; host or cells: HEK 293 cells (Invitrogen), stably transfected.
Data set [3] addresses T1, DAT. Briefly: Radioligand binding, [3H]-WIN35,428, HEK 293 membranes. Set-up: expressed in transfected cells; host or cells: HEK 293 cells (Invitrogen), stably transfected.
Data set [4] addresses T2, NET. Briefly: [3H]-NE uptake inhibition, method A (silicon oil). The data set is classed as cell-based. Set-up: expressed in transfected cells; host or cells: HEK 293 cells (Invitrogen), stably transfected.
Another data set has as its system NE transporter. Conditions: no reference given; cited from earlier work.
Another data set has as its system NCCc1c[nH]c2ccc(O)cc12. As to the kind of experiment: cells, lysate or membranes. Conditions: other: method A.
Substrate in data set [5]: NCCc1ccc(O)c(O)c1
Briefly: cells, lysate or membranes. The following applies: other: method A.

Where [6] appears, read: Duloxetine-MDMA session, mean±SEM, n=16.
The mark [7] stands for this setting: Placebo-MDMA session, mean±SEM, n=16.
Where [8] appears, read: duloxetine-MDMA vs placebo-MDMA.

T2 sequence (P23975 whole entry): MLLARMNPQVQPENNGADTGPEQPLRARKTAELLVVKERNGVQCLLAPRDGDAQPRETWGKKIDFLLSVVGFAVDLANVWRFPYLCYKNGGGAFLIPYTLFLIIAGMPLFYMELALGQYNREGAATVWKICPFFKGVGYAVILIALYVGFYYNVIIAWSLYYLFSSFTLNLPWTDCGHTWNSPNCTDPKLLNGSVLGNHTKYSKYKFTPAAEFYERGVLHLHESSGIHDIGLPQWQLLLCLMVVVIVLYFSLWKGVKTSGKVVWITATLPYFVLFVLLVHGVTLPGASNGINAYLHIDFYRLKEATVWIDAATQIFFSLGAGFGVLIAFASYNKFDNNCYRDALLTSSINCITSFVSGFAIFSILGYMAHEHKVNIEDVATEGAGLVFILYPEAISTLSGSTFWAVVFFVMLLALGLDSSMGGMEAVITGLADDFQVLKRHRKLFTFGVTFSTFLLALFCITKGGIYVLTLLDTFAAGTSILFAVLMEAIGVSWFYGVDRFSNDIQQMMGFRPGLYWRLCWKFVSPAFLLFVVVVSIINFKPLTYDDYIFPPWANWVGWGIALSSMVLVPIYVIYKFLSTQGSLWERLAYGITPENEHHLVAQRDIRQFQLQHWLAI

Turning to `CNC(C)Cc1ccc(O)c(OC)c1` (stereo not shown) [HMMA, 4-hydroxy-3-methoxymethamphetamine], the Cmax in “clinical” (Duloxetine-MDMA session (duloxetine 120 mg 16 and 4 h before MDMA 125 mg), plasma, mean±SEM, n=16) was 2.00 ± 0.38 ng/mL; in “clinical” (Placebo-MDMA session (MDMA 125 mg), plasma, mean±SEM, n=16), 3.36 ± 0.34 ng/mL. In addition, the AUC0-6 in the data set “clinical” (setting [6]) worked out at 8.14 ± 1.45 ng·h/mL; in the data set “clinical” (setting [7]) it was 13.57 ± 1.58 ng·h/mL. Further, the Tmax in the data set “clinical” (setting [6]) stood at 1.89 ± 0.25 h; in the data set “clinical” (setting [7]) it was 1.84 ± 0.17 h. Also, the “Decrease in AUC0-6h by duloxetine” value in “clinical” (setting [8]) is 48±6%. In addition, the “Decrease in Cmax by duloxetine” value in the data set “clinical” (setting [8]) was found to be 46±6%.

On to `CC(N)Cc1ccc2c(c1)OCO2` (stereo not shown) [MDA, 3,4-methylenedioxyamphetamine], for which the peak concentration (Cmax) in “clinical” (human, in vivo) is 10.7 ± 0.72 ng/mL; in the data set “clinical” (human, in vivo, 125 mg) it was 11.8 ± 0.7 ng/mL. Also, in the data set “clinical” (human, in vivo, AUC0-6), the area under the curve AUC(0-t) came out at 46.6 ± 3.02 ng·h/mL. Moreover, the time of peak concentration (Tmax) in “clinical” (human, in vivo, Tmax) is 5.5 ± 0.22 h. Besides, the Ki at DAT [1] is 11 µM; on NET [2] it was 17.8 ± 4.06 µM; at DAT [3], 26.4 ± 4.24 µM; on NET [4], 0.341 µM.

For the molecule `CNCCCN1c2ccccc2CCc2ccccc21` [desipramine], in the data set with NE transporter, the “Block of thyramine-induced SBP responses” value was “completely blocked”.

On to human SERT (Homo sapiens), for which, in the data set on NCCc1c[nH]c2ccc(O)cc12, the Km was 0.489 ± 0.147 µM.

B1: human DAT (Homo sapiens) (protein)
chain: MSKSKCSVGLMSSVVAPAKEPNAVGPKEVELILVKEQNGVQLTSSTLTNPRQSPVEAQDRETWGKKIDFLLSVIGFAVDLANVWRFPYLCYKNGGGAFLVPYLLFMVIAGMPLFYMELALGQFNREGAAGVWKICPILKGVGFTVILISLYVGFFYNVIIAWALHYLFSSFTTELPWIHCNNSWNSPNCSDAHPGDSSGDSSGLNDTFGTTPAAEYFERGVLHLHQSHGIDDLGPPRWQLTACLVLVIVLLYFSLWKGVKTSGKVVWITATMPYVVLTALLLRGVTLPGAIDGIRAYLSVDFYRLCEASVWIDAATQVCFSLGVGFGVLIAFSSYNKFTNNCYRDAIVTTSINSLTSFSSGFVVFSFLGYMAQKHSVPIGDVAKDGPGLIFIIYPEAIATLPLSSAWAVVFFIMLLTLGIDSAMGGMESVITGLIDEFQLLHRHRELFTLFIVLATFLLSLFCVTNGGIYVFTLLDHFAAGTSILFGVLIEAIGVAWFYGVGQFSDDIQQMTGQRPSLYWRLCWKLVSPCFLLFVVVVSIVTFRPPHYGAYIFPDWANALGWVIATSSMAMVPIYAAYKFCSLPGSFREKLAYAIAPEKDRELVDRGEVRQFTLRHWLKV
In the case of B1, the Km in data set [5] is 1.707 ± 0.297 µM.

For orientation: Cmax means the highest concentration seen after dosing. What is called Tmax is the time at which the peak concentration occurs. For orientation: AUC(0-t) means exposure summed from dosing to a finite time, without extrapolation to infinity. Lower therefore signals low exposure. As usually defined, the Ki is a measure of affinity in units of concentration, obtained from inhibition or displacement. High values mean a looser hold on the target, low ones a stronger hold on the target. By Km is commonly meant the substrate concentration at which the rate is half of its maximum.
